What is called IC50 is the midpoint of a concentration-inhibition curve. Higher therefore signals a need for much substance.

The subject of this assay is Endogenous Huntingtin Protein. As to the kind of experiment: Endogenous Huntingtin Protein Assay (MSD plates, MW1 or MAB2166 capture antibody). It counts as cell-based. The following applies: Table 1. An outline of the steps:
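Sandwich MSD immunoassay: plates were coated overnight at 4° C with MW1 (expanded polyQ) or MAB2166 capture antibody at 1 μg/mL, then blocked with 5% BSA. Samples were bound overnight at 4° C, followed by rabbit mAb #5656S and SULFO-TAG anti-rabbit detection, each at 0.25 μg/mL for 1 h at room temperature. Signal was read by electrochemiluminescence.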
Regarding `CCn1cc(-c2cnc(-c3nc4sc(N(C)C5CC(C)(C)NC(C)(C)C5)nc4s3)c(O)c2)cn1` [Compound 50, 5-(1-ethyl-1H-pyrazol-4-yl)-2-{5-[methyl(2,2,6,6-tetramethylpiperidin-4-yl)amino][1,3]thiazolo[5,4-d][1,3]thiazol-2-yl}pyridin-3-ol], the IC50 lay in the range of 100 to 500 nM.
Then `CN(c1nc2sc(-c3ncc(-n4ccnn4)cc3O)nc2s1)C1CCNCC1` [Compound 215, 2-{5-[methyl(piperidin-4-yl)amino][1,3]thiazolo[5,4-d][1,3]thiazol-2-yl}-5-(1H-1,2,3-triazol-1-yl)pyridin-3-ol], with 100 to 500 nM; and `Cc1cn2cc(-c3nc4sc(C5CCNCC5)nc4s3)cc(C#N)c2n1` [Compound 10, 2-methyl-6-[5-(piperidin-4-yl)[1,3]thiazolo[5,4-d][1,3]thiazol-2-yl]imidazo[1,2-a]pyridine-8-carbonitrile], with 100 to 500 nM; and `CN(c1nc2sc(-c3ccc(-c4cn[nH]c4)cc3O)nc2s1)C1CC(C)(C)NC(C)(C)C1` [Compound 1, 2-{5-[methyl(2,2,6,6-tetramethylpiperidin-4-yl)amino][1,3]thiazolo[5,4-d][1,3]thiazol-2-yl}-5-(1H-pyrazol-4-yl)phenol], with at most 100 nM.
Then `CN(c1nc2sc(-c3ncc(-c4cn[nH]c4)cn3)nc2s1)C1CCNCC1` [Compound 201, N-methyl-N-(piperidin-4-yl)-5-[5-(1H-pyrazol-4-yl)pyrimidin-2-yl][1,3]thiazolo[5,4-d][1,3]thiazol-2-amine], with 500 to 1000 nM; and `CC(C)N1CCC(N(C)c2nc3sc(-c4ncc(-c5cn[nH]c5)c5cc[nH]c45)nc3s2)CC1` [Compound 121, N-methyl-N-[1-(propan-2-yl)piperidin-4-yl]-5-[4-(1H-pyrazol-4-yl)-1H-pyrrolo[2,3-c]pyridin-7-yl][1,3]thiazolo[5,4-d][1,3]thiazol-2-amine], with at most 100 nM; and `CC1CC(N(C)c2nc3sc(-c4ncc(-c5cn[nH]c5)cc4O)nc3s2)CCN1C` (stereo not drawn) [Compound 182, 2-{5-[(1,2-dimethylpiperidin-4-yl)(methyl)amino][1,3]thiazolo[5,4-d][1,3]thiazol-2-yl}-5-(1H-pyrazol-4-yl)pyridin-3-ol], with at most 100 nM.
Then `[2H]C([2H])([2H])n1cc(-c2ccc(-c3nc4sc(N(C)C5CCN(C)CC5)nc4s3)c(O)c2)cn1` [Compound 58, 2-{5-[methyl(1-methylpiperidin-4-yl)amino][1,3]thiazolo[5,4-d][1,3]thiazol-2-yl}-5-[1-(^2H3)methyl-1H-pyrazol-4-yl]phenol], with at most 100 nM; and `CN(c1nc2sc(-c3ccc(-c4cn[nH]c4)cn3)nc2s1)C1CC(C)(C)NC(C)(C)C1` [Compound 133, N-methyl-5-[5-(1H-pyrazol-4-yl)pyridin-2-yl]-N-(2,2,6,6-tetramethylpiperidin-4-yl)[1,3]thiazolo[5,4-d][1,3]thiazol-2-amine], with at most 100 nM; and `Cn1cc2cc(-c3nc4sc(N5CC6(CCNCC6)C5)nc4s3)cc(F)c2n1` [Compound 176, 5-[5-(2,7-diazaspiro[3.5]nonan-2-yl)[1,3]thiazolo[5,4-d][1,3]thiazol-2-yl]-7-fluoro-2-methyl-2H-indazole], with 100 to 500 nM.
Take `CCN1CCC(N(C)c2nc3sc(-c4ncc(-c5cn[nH]c5)cc4O)nc3s2)CC1` [Compound 207, 2-{5-[(1-ethylpiperidin-4-yl)(methyl)amino][1,3]thiazolo[5,4-d][1,3]thiazol-2-yl}-5-(1H-pyrazol-4-yl)pyridin-3-ol]: the IC50 was at most 100 nM.
In the case of `Cc1ncc(-c2cnc(-c3nc4sc(N(C)C5CCNCC5)nc4s3)c(O)c2)o1` [Compound 223, 5-(2-methyl-1,3-oxazol-5-yl)-2-{5-[methyl(piperidin-4-yl)amino][1,3]thiazolo[5,4-d][1,3]thiazol-2-yl}pyridin-3-ol] it was at most 100 nM; in that of `C[C@H]1C[C@H](Oc2nc3sc(-c4ncc(-c5cn[nH]c5)c5cc[nH]c45)nc3s2)CCN1` [Compound 109, 7-(5-{[(2S,4R)-2-methylpiperidin-4-yl]oxy}[1,3]thiazolo[5,4-d][1,3]thiazol-2-yl)-4-(1H-pyrazol-4-yl)-1H-pyrrolo[2,3-c]pyridine], at most 100 nM; in that of `Cn1cc2cc(-c3cn4nc(C5CCNCC5)sc4n3)cc(C#N)c2n1` [Compound 32, 2-methyl-5-[2-(piperidin-4-yl)imidazo[2,1-b][1,3,4]thiadiazol-6-yl]-2H-indazole-7-carbonitrile], 100 to 500 nM.
In the case of `CCCN1CCC(N(C)c2nc3sc(-c4ncc(-c5cn[nH]c5)cc4O)nc3s2)CC1` [Compound 206, 2-{5-[methyl(1-propylpiperidin-4-yl)amino][1,3]thiazolo[5,4-d][1,3]thiazol-2-yl}-5-(1H-pyrazol-4-yl)pyridin-3-ol] it was at most 100 nM; in that of `CN(c1nc2sc(-c3cc(F)c(-c4cn[nH]c4)cc3F)nc2s1)C1CCNCC1` [Compound 20, 5-[2,5-difluoro-4-(1H-pyrazol-4-yl)phenyl]-N-methyl-N-(piperidin-4-yl)[1,3]thiazolo[5,4-d][1,3]thiazol-2-amine], 100 to 500 nM; in that of `CN(c1nc2sc(-c3ccc(-c4ccn(C)c(=O)c4)cc3O)nc2s1)C1CCNCC1` [Compound 36, 4-(3-hydroxy-4-{5-[methyl(piperidin-4-yl)amino][1,3]thiazolo[5,4-d][1,3]thiazol-2-yl}phenyl)-1-methylpyridin-2(1H)-one], 100 to 500 nM.
With `CN(c1nc2sc(-c3cnc(-n4ccnc4)cn3)nc2s1)[C@H]1C[C@]2(C)CC[C@](C)(C1)N2` [Compound 103, N-[(1R,3s,5S)-1,5-dimethyl-8-azabicyclo[3.2.1]octan-3-yl]-5-[5-(1H-imidazol-1-yl)pyrazin-2-yl]-N-methyl[1,3]thiazolo[5,4-d][1,3]thiazol-2-amine], the IC50 was at most 100 nM.
Regarding `Cc1n[nH]c(C)c1-c1cnc(-c2nc3sc(N(C)[C@H]4C[C@]5(C)CC[C@](C)(C4)N5)nc3s2)cn1` [Compound 73, N-[(1R,3s,5S)-1,5-dimethyl-8-azabicyclo[3.2.1]octan-3-yl]-5-[5-(3,5-dimethyl-1H-pyrazol-4-yl)pyrazin-2-yl]-N-methyl[1,3]thiazolo[5,4-d][1,3]thiazol-2-amine], the IC50 fell in the range of 1000 to 3000 nM.
Then `CN(c1nc2sc(-c3ccc(-c4cn[nH]c4)cc3O)nc2s1)[C@H]1CCNC1` [Compound 54, 2-(5-{methyl[(3S)-pyrrolidin-3-yl]amino}[1,3]thiazolo[5,4-d][1,3]thiazol-2-yl)-5-(1H-pyrazol-4-yl)phenol], with at most 100 nM; and `CN(c1nc2sc(-c3ncc(-c4cnsc4)cc3O)nc2s1)C1CCNCC1` [Compound 216, 2-{5-[methyl(piperidin-4-yl)amino][1,3]thiazolo[5,4-d][1,3]thiazol-2-yl}-5-(1,2-thiazol-4-yl)pyridin-3-ol], with at most 100 nM.

The values are drawn from patent publication US11685746B2, “Heteroaryl compounds for treating Huntington's disease” (PTC THERAPEUTICS, INC., priority 2018, dated 2023).
